According to patent US7906547B2, “Azabicylic compounds, a process for their preparation and pharmaceutical compositions containing them” (Les Laboratoires Servier, priority 2008, dated 2011):
Where a name gives a salt, the structure may show the parent alone.

How the values were obtained:
NMRI mouse [1] = assay: Tail suspension test in the NMRI mouse; assay type: in vivo; conditions: 10 mg/kg IP 24 hours and 30 minutes before suspension, 6 minutes
Description: The tail suspension test in the mouse (Porsolt et al., Arch. Int. Pharmacodyn., 1987, 288, 11) enables detection of psychopharmacological properties of compounds. NMRI mice are suspended by the tail, with the aid of a piece of adhesive tape, from a hook for 6 minutes: the immobility time is measured automatically with the aid of movement sensors. The animals are treated, by the intraperitoneal route, with the compounds of the invention or their carriers 24 hours and 30 minutes before they are suspended.

[2] = molecular target: T1, type H3 central histamine receptors (Mus musculus, UniProt P58406); assay: Cerebral levels of Nτ-methylhistamine in the NMRI mouse (ex vivo H3 antagonist activity); conditions: one hour after treatment, vs carrier
T1 construct: the brains are removed, frozen in liquid nitrogen, weighed and homogenised; from tissue; host or cells: brain of living NMRI mice (oral dosing)
Description: The purpose of this study, which was carried out in accordance with the method of Taylor et al. (Biochem. Pharm., 1992, 44, 1261-1267), is to evaluate the ex vivo activity of the compounds of the present invention as antagonists of type H3 central histamine receptors. […] An increase in the cerebral concentrations of N^τ-methylhistamine indicates an increase in the turn-over of histamine by blockage of the type H3 central histamine receptors.
NMRI mice (18-20 g) are treated with compounds of the present invention or with their carrier (20 ml/kg) by the oral route. One hour after the pharmacological treatment, the animals are sacrificed; the brains are removed, frozen in liquid nitrogen, weighed and homogenised in 0.1N HClO4 at 4° C. The homogenised products are centrifuged (15 000 g, 17 min, 4° C.). The supernatants are recovered and divided into aliquots. The aliquots are frozen in liquid nitrogen and stored at −80° C. until they are analysed.
Determination of the cerebral levels of N^τ-methylhistamine is carried out by capillary electrophoresis. The tissue levels of N^τ-methylhistamine are expressed in μg/g of fresh brain. The comparison of the cerebral levels of N^τ-methylhistamine between animals treated with the carrier (controls) and animals treated with compounds of the present invention is carried out by single-factor variance analysis followed, if necessary, by a complementary analysis (Dunnett's test).

Wistar rat [3] = assay: Interaction with barbital in the Wistar rat; assay type: in vivo; conditions: 30 mg/kg PO 30 minutes before barbital 170 mg/kg IP, sleep measured for 4 hours
Description: The objective of this test is to determine the anti-sedative, awakening and/or anti-hypnotic properties of the compounds of the present invention. The rats are placed in individual cages and are given an injection of barbital (170 mg/kg IP). The duration of sleep is then measured for 4 hours after the injection of barbital, determined on the basis of loss of the righting reflex. The compounds of the invention or their carriers are administered by the oral route 30 minutes before the administration of barbital.

NMRI mouse [4] = assay: Forced swimming test in the NMRI mouse; assay type: in vivo; conditions: 30 mg/kg IP 30 minutes before test, final 4 minutes of 6
Description: The forced swimming test is very widely used for detecting the antidepressant properties of compounds (Porsolt et al., Arch. Int. Pharmacodyn., 1977, 229, 327-336). The animals are placed for 6 minutes in cylinders filled with water (14 cm) and the immobility time is measured for the final 4 minutes by a video-tracking system. The compounds of the present invention or their carriers are administered by the intraperitoneal route 30 minutes before the mice are placed in the cylinder.

NMRI mouse [5] = assay: Marble-burying test in the NMRI mouse; assay type: in vivo; conditions: 30 mg/kg IP 30 minutes before test, 30 minutes period
Description: The spontaneous marble-burying behaviour in the mouse is a very sensitive empirical test for antidepressant compounds (Sanchez and Meier, Psychopharmacology, 1997; 129: 197-205; Nicolas and Prinssen, Eur. J. Pharmacol., 2006, 547: 106-115). The mice are placed in individual cages in which there are 24 marbles and the number of marbles buried by each animal is determined for a period of 30 minutes. The animals are treated by the intraperitoneal route with the compounds of the present invention or their carriers 30 minutes before placing the animals in the cage containing marbles.

Wistar rat [6] = assay: Electroencephalogram recordings in the awake Wistar rat; assay type: in vivo; conditions: 3 mg/kg IP
Description: Electrodes are chronically implanted in adult male Wistar rats, being located at the surface of the frontal and parietal cortex. Cortical electroencephalogram (EEG) recordings are made in the rats placed in cages in a sound-proofed room. The compounds and carriers are administered in randomised manner by the intraperitoneal route at 10 o'clock on the same days with a minimum of 3 days between each administration, allowing each rat to be used as its own control. The absolute power of the slow delta activities (1-4 Hz), which predominate during slow sleep and disappear during wakefulness and paradoxical sleep, is averaged over successive periods of 30 minutes. Over 30 minutes, high and low values for the power of the slow delta activities are signs of […], respectively.

Sprague-Dawley rat = assay: Object recognition in the Sprague-Dawley rat; assay type: in vivo; conditions: 0.3 mg/kg PO, 60 minutes before each session, 24 hours between sessions
From the text: The object recognition test in the Sprague-Dawley rat (Behav. Brain Res., 1988, 31, 47-59) is based on the spontaneous exploratory activity of the animal and has the characteristics of episodic memory in humans. This memory test is sensitive to ageing (Eur. J. Pharmacol., 1997, 325, 173-180) and to cholinergic dysfunctions (Pharm. Biochem. Behav. 1996, 53(2), 277-283) and is based on the differences in the exploration of 2 objects of fairly similar shape—one familiar, the other new. Prior to the test, the animals are habituated to the environment (an enclosure without an object). In the course of a first session, the rats are placed (3 minutes) in the enclosure, in which there are 2 identical objects. The duration of exploration is measured for each object. In the course of the second session (3 minutes), 24 hours later, 1 of the 2 objects is replaced by a new object. The duration of exploration is measured for each object. The assessment criterion is the difference, Delta, expressed in seconds, between the exploration times for the new object and for the familiar object in the course of the second session.

Wistar rat [7] = assay: Social recognition in the Wistar rat; assay type: in vivo; conditions: second encounter after 2 hours
From the text: Initially described in 1982 (J. Comp. Physiol., 1982, 96, 1000-1006), the social recognition test has subsequently been proposed by various authors (Psychopharmacology, 1987, 91, 363-368; Psychopharmacology, 1989, 97, 262-268) for studying the mnemocognitive effects of new compounds. The test is based on the natural expression of the olfactory memory of the rat and its natural tendency to forget and allows evaluation of memorisation, by recognition of a young congeneric animal, by an adult rat. A young rat (21 days), taken at random, is placed for 5 minutes in the cage housing an adult rat. With the aid of a video device, the experimenter observes the social recognition behaviour of the adult rat and measures its overall duration. The young rat is then removed from the adult rat's cage and is placed in its own cage until the second introduction. The adult rat is given the compound under test by the intraperitoneal route and, after 2 hours, is again brought into the presence (5 minutes) of the young rat. The social recognition behaviour is then observed again and its duration measured. The assessment criterion is the difference (T2−T1), expressed in seconds, between the “recognition” times of the 2 encounters.

T1 sequence (P58406 whole entry): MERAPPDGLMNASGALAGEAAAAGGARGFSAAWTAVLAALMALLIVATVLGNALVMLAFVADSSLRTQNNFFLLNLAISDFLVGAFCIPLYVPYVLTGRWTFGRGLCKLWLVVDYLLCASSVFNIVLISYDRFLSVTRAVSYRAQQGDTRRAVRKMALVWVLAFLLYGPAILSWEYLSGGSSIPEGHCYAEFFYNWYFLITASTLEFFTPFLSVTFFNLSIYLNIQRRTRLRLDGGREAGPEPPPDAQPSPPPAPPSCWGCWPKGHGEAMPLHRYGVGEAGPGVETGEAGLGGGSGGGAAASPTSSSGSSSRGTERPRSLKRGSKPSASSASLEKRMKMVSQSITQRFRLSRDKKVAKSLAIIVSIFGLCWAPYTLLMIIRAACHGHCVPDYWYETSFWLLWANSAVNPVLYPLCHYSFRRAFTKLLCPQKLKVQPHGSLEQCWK

Row | SMILES | reduction in the immobility time (NMRI mouse [1]) [%] | increase in endogenous cerebral concentrations of Nτ-methylhistamine ([2]; 10 mg/kg PO) [%] | increase in endogenous cerebral concentrations of Nτ-methylhistamine ([2]; 30 mg/kg PO) [%] | reduction of the duration of sleeping caused by barbital (Wistar rat [3]) [%] | reduction in immobility (NMRI mouse [4]) [%] | decrease in the number of balls buried (NMRI mouse [5]) [%] | further results
1 | COCC(=O)Nc1ccc(OCCCN2C[C@H]3C[C@H]3C2)cc1 [Example 14, N-(4-{3-[(1R,5S)-3-Azabicyclo[3.1.0]hex-3-yl]propoxy}phenyl)-2-methoxyacetamide] | 36 | 124 | 266 | – | – | – | –
2 | CC(=O)Nc1ccc(OCCN2C[C@H]3C[C@H]3C2)cc1 [Example 5, N-(4-{2-[(1R,5S)-3-Azabicyclo[3.1.0]hex-3-yl]ethoxy}phenyl)acetamide] | 64 | 109 | 200 | −80 | 32 | 49 | –
3 | COCC(=O)Nc1ccc(OCCN2C[C@H]3C[C@H]3C2)cc1 [Example 15, N-(4-{2-[(1R,5S)-3-Azabicyclo[3.1.0]hex-3-yl]ethoxy}phenyl)-2-methoxyacetamide] | 77 | – | – | −76 | 34 | 83 | –
4 | CC(=O)N(C)c1ccc(OCCCN2C[C@H]3C[C@H]3C2)cc1.Cl [Example 13, N-(4-{3-[(1R,5S)-3-Azabicyclo[3.1.0]hex-3-yl]propoxy}phenyl)-N-methylacetamide hydrochloride] | 53 | 135 | 303 | – | – | – | duration of the reduction in the power of the slow delta waves (Wistar rat [6]): 120 min; effect on power of the slow delta waves (1-4 Hz), cortical EEG (Wistar rat [6]): significant reduction
5 | CNC(=O)c1ccc(OCCCCN2C[C@H]3C[C@H]3C2)cc1 [Example 12, 4-{4-[(1R,5S)-3-Azabicyclo[3.1.0]hex-3-yl]butoxy}-N-methylbenzamide] | – | – | – | −55 | – | – | –
6 | CC(=O)Nc1ccc(OCCCN2C[C@H]3C[C@H]3C2)cc1 [Example 4, N-(4-{3-[(1R,5S)-3-Azabicyclo[3.1.0]hex-3-yl]propoxy}phenyl)acetamide] | 36 | – | – | – | – | – | –
7 | NC(=O)c1ccc(OCCN2C[C@H]3C[C@H]3C2)cc1 [Example 2, 4-{2-[(1R,5S)-3-Azabicyclo[3.1.0]hex-3-yl]ethoxy}benzamide] | – | – | – | – | – | 99 | –
8 | CC(=O)Nc1ccc(OCCCCN2C[C@H]3C[C@H]3C2)cc1 [Example 6, N-(4-{4-[(1R,5S)-3-Azabicyclo[3.1.0]hex-3-yl]butoxy}phenyl)acetamide] | – | 106 | 210 | – | – | – | –
9 | CN(C)C(=O)c1ccc(OCCCCN2C[C@H]3C[C@H]3C2)cc1.O=C(O)C(=O)O [Example 8, 4-{4-[(1R,5S)-3-Azabicyclo[3.1.0]hex-3-yl]butoxy}-N,N-dimethyl-benzamide oxalate] | – | – | – | −79 | – | – | –
10 | NC(=O)c1ccc(OCCCN2C[C@H]3C[C@H]3C2)cc1 [Example 1, 4-{3-[(1R,5S)-3-Azabicyclo[3.1.0]hex-3-yl]propoxy}-benzamide hydrochloride] | 59 | – | – | – | 76 | 48 | difference, Delta, between exploration times for the new object and the familiar object (second session) (Sprague-Dawley rat): ~6 s; duration of the reduction in the power of the slow delta waves (Wistar rat [6]): 120 min; difference (T2−T1) between the recognition times of the 2 encounters (Wistar rat [7]; 1 mg/kg IP): 21 s; difference (T2−T1) between the recognition times of the 2 encounters (Wistar rat [7]; 3 mg/kg IP): 26 s
